From ChEMBL document CHEMBL1159264, “Aplysillin A, a thrombin receptor antagonist from the marine sponge Aplysina fistularis fulva” (J Nat Prod, 1995)
pIC50: −log10 of the molar value.

Molecular target: T1, Proteinase-activated receptor 1 (Homo sapiens, UniProt P25116)
T1 sequence (P25116 whole entry): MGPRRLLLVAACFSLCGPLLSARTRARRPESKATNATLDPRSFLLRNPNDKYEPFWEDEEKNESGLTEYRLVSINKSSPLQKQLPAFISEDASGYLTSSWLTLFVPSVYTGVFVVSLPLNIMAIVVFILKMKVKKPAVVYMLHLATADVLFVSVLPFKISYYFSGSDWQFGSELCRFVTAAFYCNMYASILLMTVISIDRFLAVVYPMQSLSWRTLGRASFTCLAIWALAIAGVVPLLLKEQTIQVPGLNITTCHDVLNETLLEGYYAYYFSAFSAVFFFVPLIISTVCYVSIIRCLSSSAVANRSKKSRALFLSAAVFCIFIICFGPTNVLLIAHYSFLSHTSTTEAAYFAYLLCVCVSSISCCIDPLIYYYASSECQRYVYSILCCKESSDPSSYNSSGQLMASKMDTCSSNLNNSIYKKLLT
Assay: Displacement of [125I]thrombin from thrombin receptor in human platelet membrane
Assay type: cell membranes

- pIC50: 4.70
Structure (SMILES): O=S(=O)(O)OC(=C\c1cc(O)c(O)c(Br)c1)/C(=C\c1ccc(O)c(Br)c1)OS(=O)(=O)O [APLYSIILLIN A]
